Active and inactive are the calls of the source.
Tests used:
[1] = system: INS1; assay: protection of INS-1E cells from cytokine death, dose response, ATP luminescence, dry powder (AID 488844); format: functional, cell-based; conditions: Rattus norvegicus
[2] = system: INS1; assay: caspase-3/7 inhibition in cytokine-treated INS-1E, dose response, beta-cell apoptosis inhibitor project, cell-based, caspase luminescence, dry powder (AID 488848); format: functional; conditions: Rattus norvegicus
[3] = system: INS1; assay: inhibitors of cytokine-induced nitrite release, dose response, cell-based, Griess absorbance, INS-1E, dry powder, set 2 (AID 488868); format: functional; conditions: Rattus norvegicus
[4] = system: INS1; assay: protection from cytokine-induced mitochondrial depolarization, dose response, cell-based, INS-1E, JC-1 fluorescence ratio, dry powder (AID 488931); format: functional; conditions: Rattus norvegicus
[5] = target: Glycogen synthase kinase-3 alpha (Homo sapiens, UniProt P49840); assay: Inhibition of Human GSK-3 alpha Activity Measured in Biochemical System Using Microfluidics - 2063-06_Inhibitor_Dose_DryPowder_Activity_Set2. [Related pubchem assays (depositor defined):AID2709]
Sequence of Glycogen synthase kinase-3 alpha (P49840 whole entry): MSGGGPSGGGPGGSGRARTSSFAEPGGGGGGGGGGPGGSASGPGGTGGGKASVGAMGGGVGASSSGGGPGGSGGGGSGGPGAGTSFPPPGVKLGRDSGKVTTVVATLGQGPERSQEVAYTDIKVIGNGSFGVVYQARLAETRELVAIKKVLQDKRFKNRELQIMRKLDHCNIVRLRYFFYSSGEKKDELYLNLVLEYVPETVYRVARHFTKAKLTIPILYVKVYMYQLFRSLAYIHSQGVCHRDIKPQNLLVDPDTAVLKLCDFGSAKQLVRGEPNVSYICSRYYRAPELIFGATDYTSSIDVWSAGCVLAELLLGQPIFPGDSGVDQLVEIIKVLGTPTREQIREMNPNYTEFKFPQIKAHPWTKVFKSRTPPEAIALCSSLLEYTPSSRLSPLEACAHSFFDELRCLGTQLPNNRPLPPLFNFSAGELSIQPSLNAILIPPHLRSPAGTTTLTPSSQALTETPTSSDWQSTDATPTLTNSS

[6] = target: T1, Glycogen synthase kinase-3 beta (Homo sapiens, UniProt P49841); assay: Inhibition of Human GSK-3 beta Activity Measured in Biochemical System Using Microfluidics - 2063-05_Inhibitor_Dose_DryPowder_Activity_Set2. [Related pubchem assays (depositor defined):AID2709]
T1 sequence (P49841 whole entry): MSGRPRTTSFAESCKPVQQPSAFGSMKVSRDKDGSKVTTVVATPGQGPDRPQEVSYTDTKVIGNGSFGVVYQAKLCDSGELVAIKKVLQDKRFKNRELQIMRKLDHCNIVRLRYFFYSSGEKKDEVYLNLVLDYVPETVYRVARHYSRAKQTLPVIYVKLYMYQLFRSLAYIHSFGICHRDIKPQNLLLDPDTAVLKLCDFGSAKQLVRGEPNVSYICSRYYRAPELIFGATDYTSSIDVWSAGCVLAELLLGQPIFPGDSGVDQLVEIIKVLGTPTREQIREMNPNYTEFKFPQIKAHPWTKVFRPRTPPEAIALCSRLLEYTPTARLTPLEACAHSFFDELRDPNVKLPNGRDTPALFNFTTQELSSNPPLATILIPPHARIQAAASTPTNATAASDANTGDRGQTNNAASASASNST

[7] = Luminescence Cell-Based Dose Retest to Confirm Inhibitors of Cancer Stem Cells. [Related pubchem assays (depositor defined):AID2717, AID2721]; format: functional; conditions: Homo sapiens
[8] = A Cell Based Secondary Assay to Explore Cytotoxicity in THP-1 Cells of Compounds that Modulate Mycobacterium tuberculosis in Media Containing Glycerol versus Media without Glycerol (2).; format: functional
[9] = Vero cell cytotoxicity, cytotoxicity control for M. tuberculosis inhibitor project, purified and synthesized samples, set 3 (AID 504684); format: functional
[10] = A Cell Based Secondary Assay to Explore Cytotoxicity in HepG2 Cells of Compounds that Modulate Mycobacterium tuberculosis in Media Containing Glycerol versus Media without Glycerol (2).; format: functional
[11] = target: Serine/threonine-protein kinase pim-1 (Homo sapiens, UniProt P11309); format: functional
[12] = target: Cell division cycle 7-related protein kinase (Homo sapiens, UniProt O00311); format: functional;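 further: value obtained from a kinome-wide kinase panel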
Sequence of Cell division cycle 7-related protein kinase (O00311 whole entry): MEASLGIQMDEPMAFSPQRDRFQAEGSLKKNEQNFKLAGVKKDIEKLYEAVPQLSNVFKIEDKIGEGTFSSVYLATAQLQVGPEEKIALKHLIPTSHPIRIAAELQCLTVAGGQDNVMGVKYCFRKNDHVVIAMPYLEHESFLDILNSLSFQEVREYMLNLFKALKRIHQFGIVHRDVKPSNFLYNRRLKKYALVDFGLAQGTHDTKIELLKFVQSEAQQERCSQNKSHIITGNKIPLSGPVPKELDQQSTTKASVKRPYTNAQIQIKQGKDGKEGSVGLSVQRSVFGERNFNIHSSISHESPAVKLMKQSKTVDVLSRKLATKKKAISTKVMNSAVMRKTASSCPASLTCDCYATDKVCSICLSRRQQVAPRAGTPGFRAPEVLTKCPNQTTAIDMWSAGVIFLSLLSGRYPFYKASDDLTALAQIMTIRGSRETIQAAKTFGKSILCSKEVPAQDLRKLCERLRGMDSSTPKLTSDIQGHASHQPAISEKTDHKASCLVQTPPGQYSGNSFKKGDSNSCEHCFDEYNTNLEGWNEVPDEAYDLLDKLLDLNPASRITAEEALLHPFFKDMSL

[13] = target: Homeodomain-interacting protein kinase 2 (Homo sapiens, UniProt Q9H2X6); format: functional;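 further: measured within a kinome-wide kinase profiling panel, HIPK2 being one panel member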
Sequence of Homeodomain-interacting protein kinase 2 (Q9H2X6 whole entry): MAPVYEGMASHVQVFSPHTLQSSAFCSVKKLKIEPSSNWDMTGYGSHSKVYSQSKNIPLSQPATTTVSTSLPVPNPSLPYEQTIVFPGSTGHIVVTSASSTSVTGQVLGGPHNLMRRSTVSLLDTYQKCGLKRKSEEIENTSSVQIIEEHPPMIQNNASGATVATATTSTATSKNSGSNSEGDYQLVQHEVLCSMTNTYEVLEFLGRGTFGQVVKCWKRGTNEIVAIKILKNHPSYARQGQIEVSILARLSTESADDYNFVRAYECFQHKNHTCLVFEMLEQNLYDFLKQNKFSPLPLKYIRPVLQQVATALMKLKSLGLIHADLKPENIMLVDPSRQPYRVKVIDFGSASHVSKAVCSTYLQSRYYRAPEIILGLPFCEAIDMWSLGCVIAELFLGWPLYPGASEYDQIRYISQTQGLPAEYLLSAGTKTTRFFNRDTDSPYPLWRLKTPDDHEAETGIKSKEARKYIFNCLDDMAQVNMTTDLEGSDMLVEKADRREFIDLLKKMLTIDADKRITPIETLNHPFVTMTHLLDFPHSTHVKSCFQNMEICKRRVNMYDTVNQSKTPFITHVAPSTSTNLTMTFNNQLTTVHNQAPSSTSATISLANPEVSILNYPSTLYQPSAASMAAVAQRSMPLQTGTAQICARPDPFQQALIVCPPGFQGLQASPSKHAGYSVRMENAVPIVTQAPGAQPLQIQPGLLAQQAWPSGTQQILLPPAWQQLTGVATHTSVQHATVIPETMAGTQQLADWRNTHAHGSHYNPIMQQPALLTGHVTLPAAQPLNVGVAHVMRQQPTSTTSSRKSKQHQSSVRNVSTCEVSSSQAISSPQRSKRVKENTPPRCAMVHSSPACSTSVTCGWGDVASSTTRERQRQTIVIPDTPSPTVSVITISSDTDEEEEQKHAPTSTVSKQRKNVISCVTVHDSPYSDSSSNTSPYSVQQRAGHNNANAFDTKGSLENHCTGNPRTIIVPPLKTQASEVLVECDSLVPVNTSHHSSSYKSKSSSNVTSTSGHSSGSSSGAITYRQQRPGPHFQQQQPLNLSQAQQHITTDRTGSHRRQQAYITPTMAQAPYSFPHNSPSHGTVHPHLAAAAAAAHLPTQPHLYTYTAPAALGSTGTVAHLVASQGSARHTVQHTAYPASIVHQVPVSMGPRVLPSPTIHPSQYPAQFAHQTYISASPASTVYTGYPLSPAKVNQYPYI

[14] = target: Interleukin-1 receptor-associated kinase 4 (Homo sapiens, UniProt Q9NWZ3); format: functional
Sequence of Interleukin-1 receptor-associated kinase 4 (Q9NWZ3 whole entry): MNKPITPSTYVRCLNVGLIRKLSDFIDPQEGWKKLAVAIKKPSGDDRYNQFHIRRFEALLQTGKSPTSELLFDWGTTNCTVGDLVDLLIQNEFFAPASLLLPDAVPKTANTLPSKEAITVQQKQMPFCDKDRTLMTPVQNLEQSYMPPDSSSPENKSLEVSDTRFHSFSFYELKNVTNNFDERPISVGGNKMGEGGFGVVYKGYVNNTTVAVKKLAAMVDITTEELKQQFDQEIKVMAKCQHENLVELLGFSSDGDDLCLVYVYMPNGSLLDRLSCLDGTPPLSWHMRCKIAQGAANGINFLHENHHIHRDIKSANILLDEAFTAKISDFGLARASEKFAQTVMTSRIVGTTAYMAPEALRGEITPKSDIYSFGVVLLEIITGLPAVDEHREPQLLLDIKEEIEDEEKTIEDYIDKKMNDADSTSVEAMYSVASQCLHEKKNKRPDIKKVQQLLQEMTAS

[15] = target: T1, Glycogen synthase kinase-3 beta; format: functional
[16] = target: cAMP-dependent protein kinase catalytic subunit alpha (Homo sapiens, UniProt P17612); format: functional
[17] = target: Dual specificity protein kinase CLK4 (Homo sapiens, UniProt Q9HAZ1); format: functional
[18] = target: Mitogen-activated protein kinase kinase kinase kinase 4 (Homo sapiens, UniProt O95819); format: functional
Sequence of Mitogen-activated protein kinase kinase kinase kinase 4 (O95819 whole entry): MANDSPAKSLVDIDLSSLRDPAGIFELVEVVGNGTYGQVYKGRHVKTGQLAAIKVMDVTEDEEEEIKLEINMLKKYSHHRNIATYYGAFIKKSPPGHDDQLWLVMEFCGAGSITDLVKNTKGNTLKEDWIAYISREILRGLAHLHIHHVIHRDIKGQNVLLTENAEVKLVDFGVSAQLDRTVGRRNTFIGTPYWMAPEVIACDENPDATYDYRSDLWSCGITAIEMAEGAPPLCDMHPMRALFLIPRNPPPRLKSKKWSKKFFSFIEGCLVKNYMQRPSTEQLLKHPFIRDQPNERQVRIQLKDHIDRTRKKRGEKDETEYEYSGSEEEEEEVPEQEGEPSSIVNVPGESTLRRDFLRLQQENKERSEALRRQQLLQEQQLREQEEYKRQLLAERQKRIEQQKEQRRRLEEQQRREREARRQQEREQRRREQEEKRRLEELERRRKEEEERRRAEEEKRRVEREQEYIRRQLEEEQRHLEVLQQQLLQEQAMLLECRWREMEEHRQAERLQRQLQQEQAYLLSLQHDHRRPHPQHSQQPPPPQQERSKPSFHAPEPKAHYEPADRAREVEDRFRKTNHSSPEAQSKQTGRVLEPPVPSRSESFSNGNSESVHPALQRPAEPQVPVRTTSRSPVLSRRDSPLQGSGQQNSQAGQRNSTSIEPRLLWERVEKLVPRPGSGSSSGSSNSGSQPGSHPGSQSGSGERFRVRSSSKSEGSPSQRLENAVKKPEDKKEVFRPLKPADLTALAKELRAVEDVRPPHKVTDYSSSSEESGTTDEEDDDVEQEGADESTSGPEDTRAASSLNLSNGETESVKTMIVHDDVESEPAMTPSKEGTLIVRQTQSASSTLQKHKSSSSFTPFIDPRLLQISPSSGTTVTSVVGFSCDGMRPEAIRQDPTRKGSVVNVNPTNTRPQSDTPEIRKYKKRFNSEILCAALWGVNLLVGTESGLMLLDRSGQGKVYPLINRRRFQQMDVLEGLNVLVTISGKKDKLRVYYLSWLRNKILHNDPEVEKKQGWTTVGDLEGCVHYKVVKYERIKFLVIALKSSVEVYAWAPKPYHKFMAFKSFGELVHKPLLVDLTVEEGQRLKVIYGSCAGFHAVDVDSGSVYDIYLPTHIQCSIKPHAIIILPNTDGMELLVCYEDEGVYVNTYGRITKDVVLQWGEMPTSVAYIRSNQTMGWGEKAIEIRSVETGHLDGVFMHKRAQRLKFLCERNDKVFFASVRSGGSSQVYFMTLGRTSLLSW

[19] = system: HEK293; assay: inhibitors of LMP1-driven NF-kB reporter, dose response, cell-based, HEK293, luciferase, cherry-pick (AID 588343); format: functional; conditions: Homo sapiens
[20] = target: Latent membrane protein 1 (Human herpesvirus 4 (strain B95-8), UniProt P03230); assay: TES1-eGFP NF-kB reporter inhibition versus Tet-On dsRED, dose response, selectivity assay for LMP1 NF-kB inhibitor project, imaging, HEK293T, dual-color eGFP/dsRED, cherry-picks (AID 588398); format: functional, cell-based
Sequence of Latent membrane protein 1 (P03230 whole entry): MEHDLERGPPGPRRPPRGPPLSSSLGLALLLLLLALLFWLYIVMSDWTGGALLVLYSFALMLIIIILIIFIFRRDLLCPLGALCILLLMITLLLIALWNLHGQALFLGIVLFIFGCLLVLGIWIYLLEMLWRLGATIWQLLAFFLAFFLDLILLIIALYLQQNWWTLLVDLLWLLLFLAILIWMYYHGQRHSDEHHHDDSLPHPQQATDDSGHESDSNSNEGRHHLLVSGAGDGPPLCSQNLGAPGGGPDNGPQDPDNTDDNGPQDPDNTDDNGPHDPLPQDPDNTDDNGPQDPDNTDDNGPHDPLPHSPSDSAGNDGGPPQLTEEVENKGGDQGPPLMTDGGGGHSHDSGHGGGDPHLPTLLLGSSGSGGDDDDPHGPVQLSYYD

Cc1ccc(S(=O)(=O)N(C)C[C@@H]2Oc3c(NC(=O)Nc4ccc(F)cc4)cccc3C(=O)N([C@@H](C)CO)C[C@H]2C)cc1
active: AC50 [1] 28.7 µM | AC50 [2] 27.4 µM | AC50 [3] 41 µM | AC50 [4] 83.3 µM

CN(C)Cc1c(C(=O)N/N=C/c2ccncc2)nnn1-c1nonc1N
active: AC50 [5] 597 nM | AC50 [6] 255 nM

S=c1[nH]cnc2nc[nH]c12 [MERCAPTOPURINE]
active: AC50 [7] 561 nM | CC50 [8] 30.4 µM | CC50 [9] 76.5 µM | CC50 [10] 5.55 µM

CCCCNc1cc(-c2ccncc2)cc2[nH]nc(N)c12
active: Ki [11] 2.51 µM | Ki [12] 12.6 nM | Ki [13] 398 nM | Ki [14] 79.4 nM | Ki [15] 398 nM | Ki [16] 398 nM | Ki [17] 3.16 nM | Ki [18] 316 nM

c1ccc(C2c3[nH]c4ccccc4c3CCN2Cc2cccn2-c2ccccn2)nc1 (stereo not given)
active: AC50 [19] 110 µM | AC50 [20] 29.8 µM

Reference: ChEMBL document CHEMBL1201862, “PubChem BioAssay data set” (2004)
